# Key:
# [1] = molecular target: T1, PKAR3 (protein kinase A regulatory subunit 3) (Leishmania donovani, UniProt A0A3S7X836); test: isothermal titration calorimetry (ITC), one-site model; assay type: binding
# T1 construct: gene LdCL_340034800
# [2] = molecular target: subpellicular microtubules (SPMT) of L. donovani promastigotes, detected as β-tubulin (L. donovani (endogenous in promastigotes)); test: FRET or BRET; fixed L. donovani promastigotes labelled with primary antibodies and secondary antibodies with Alexa Fluor 568 (donor) and 647 (acceptor); corrected acceptor FRET (Youvan), confocal microscopy
# T1 sequence (A0A3S7X836 entry or part of it): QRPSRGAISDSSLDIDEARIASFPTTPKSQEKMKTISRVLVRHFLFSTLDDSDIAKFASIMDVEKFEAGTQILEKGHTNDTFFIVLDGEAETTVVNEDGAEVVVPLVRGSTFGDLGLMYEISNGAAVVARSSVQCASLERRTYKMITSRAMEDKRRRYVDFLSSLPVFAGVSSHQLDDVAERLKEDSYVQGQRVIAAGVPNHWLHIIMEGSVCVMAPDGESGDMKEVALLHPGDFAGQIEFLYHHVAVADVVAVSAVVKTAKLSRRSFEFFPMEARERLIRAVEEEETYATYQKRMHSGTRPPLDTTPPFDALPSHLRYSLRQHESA
Compound,Kd [1],decrease of FRET-positive pixels per cell against PKAR3FL [2]
"N#Cc1cn([C@@H]2O[C@H](CO)[C@@H](O)[C@H]2O)c2ncnc(O)c12 [7-CN-7-C-Ino, 7-cyano-7-deaza-inosine]",1 nM,–
"N#Cc1cn([C@@H]2O[C@H](CO)[C@@H](O)[C@H]2O)c2ncnc(N)c12 [Toyo, Toyocamycin]",3.8 nM,–
L. donovani PKAR3 lacking the N-terminal 90 amino acids (domain or fragment),–,30%

# Reference: publication PMC11006142, “A divergent protein kinase A regulatory subunit essential for morphogenesis of the human pathogen Leishmania” (PLOS Pathogens, 2024)
